Here are results for 28 molecules from patent publication US11045457B2, “Piperidinyl-3-(aryloxy)propanamides and propanoates” (priority 2018, dated 2021).

SMILES strings stand for the structures.

Sequence of SSTR4 (P31391 whole entry): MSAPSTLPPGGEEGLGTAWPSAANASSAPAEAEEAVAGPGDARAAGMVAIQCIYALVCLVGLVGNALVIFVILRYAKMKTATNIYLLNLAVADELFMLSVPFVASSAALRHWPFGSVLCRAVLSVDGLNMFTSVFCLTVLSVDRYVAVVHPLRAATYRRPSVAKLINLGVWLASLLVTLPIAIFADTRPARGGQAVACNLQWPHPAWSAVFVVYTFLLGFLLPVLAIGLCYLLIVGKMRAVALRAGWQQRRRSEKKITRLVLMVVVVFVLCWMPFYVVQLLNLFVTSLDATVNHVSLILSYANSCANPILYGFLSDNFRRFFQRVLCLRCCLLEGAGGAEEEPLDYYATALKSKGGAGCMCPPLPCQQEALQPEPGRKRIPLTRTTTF

The first experiment concerns the target SSTR4 (Homo sapiens (Human), UniProt P31391). The experiment in a line: Inhibition of forskolin stimulated cAMP in CHO-K1 cells overexpressing SSTR4. Format: cell-based.
Conditions: not given
The protocol:
Inhibition of Forskolin Stimulated cAMP in Cells Overexpressing SSTR4
This cell-based assay measures the ability of compounds to inhibit forskolin stimulated cAMP in CHO-K1 cells overexpressing SSTR4. CHO-K1 cells overexpressing SSTR4 (CHO-SSTR4) are purchased from DiscoveRx (product code 95-0059C2). The CHO-SSTR4 cells are maintained in F12K media with 10% Fetal Bovine Serum (Hyclone), 1% Pen/Strep (Life Technologies), and 800 μg/mL G418 (Life Technologies). […] The next day, the culture media is removed from the cells and the cells are washed (added then removed) with Kreb's Ringer Buffer (ZenBio, KRB-1000 mL). […] The cells are incubated in […] for 30 minutes at room temperature. Cellular cAMP levels are detected with a HTRF LANCE Ultra cAMP kit (Perkin Elmer, catalog number TRF0264).
The assay is performed in accordance with the manufacturer's instructions. Five μL of diluted Eu-W8044 labeled streptavidin (dilution: 1:50 in cAMP Detection Buffer) is added to each well. Then 5 μL of diluted biotin cAMP (dilution: 1:150 in cAMP Detection Buffer) is added to each well. The plates are covered and allowed to incubate for 60 minutes at room temperature on a shaker. […] The pEC50 values are generated using Activity Base for Screening Data Management.
On to `Cc1cnc(OCC(C)(C)C(=O)N[C@H]2CCN(C)C[C@H]2C)c(C)c1` (relative stereo) [Example 32, cis-N-(1,3-dimethylpiperidin-4-yl)-3-((3,5-dimethylpyridin-2-yl)oxy)-2,2-dimethylpropanamide], for which the “SSTR4 Activity pEC50” value amounted to 5.8.

With `CC(C)[C@@H]1CN(C)CC[C@@H]1NC(=O)C(C)(C)COc1ncccc1C(F)(F)F` (relative stereo) [Example 34, cis-N-(3-isopropyl-1-methylpiperidin-4-yl)-2,2-dimethyl-3-((3-(trifluoromethyl)pyridin-2-yl)oxy)propanamide], the “SSTR4 Activity pEC50” value amounted to 6.1. Take `CN1CC[C@@H](NC(=O)C(C)(C)COc2ncccc2C(F)(F)F)[C@H](c2ccccc2)C1` (relative stereo) [Example 164, 2,2-dimethyl-N-(trans-1-methyl-3-phenylpiperidin-4-yl)-3-((3-(trifluoromethyl)pyridin-2-yl)oxy)propanamide]: the “SSTR4 Activity pEC50” value stood at 6.6. The same measure, in the same setting: for `CN1CC[C@@H](NC(=O)C(C)(C)COc2ncccc2OC(F)(F)F)[C@H](c2ccccc2)C1` (relative stereo) [Example 167, 2,2-dimethyl-N-(trans-1-methyl-3-phenylpiperidin-4-yl)-3-((3-(trifluoromethoxy)pyridin-2-yl)oxy)propanamide] the value was 6.8.

Still in this experiment, the particulars now being: read-out: SSTR4 Activity pEC50 (converted).
As for `C[C@@H]1CN(C)CC[C@@H]1NC(=O)C(C)(C)COc1ncccc1C(F)(F)F` (racemic) [Example 12, cis-N-(1,3-dimethylpiperidin-4-yl)-2,2-dimethyl-3-((3-(trifluoromethyl)pyridin-2-yl)oxy)propanamide], the EC50 is 126 nM. The same measure, in the same setting: for `C[C@@H]1CN(C)CC[C@@H]1NC(=O)C(C)(C)COc1ncccc1OC(F)(F)F` (racemic) [Example 14, cis-N-(1,3-dimethylpiperidin-4-yl)-2,2-dimethyl-3-((3-(trifluoromethoxy)pyridin-2-yl)oxy)propanamide] the value was 79.4 nM; for `C[C@@H]1CN(C)CC[C@@H]1NC(=O)C(C)(C)COc1ncccc1C1CC1` (racemic) [Example 21, cis-3-((3-cyclopropylpyridin-2-yl)oxy)-N-(1,3-dimethylpiperidin-4-yl)-2,2-dimethylpropanamide], 25.1 nM; for `CC(C)[C@@H]1CN(C)CC[C@H]1NC(=O)C(C)(C)COc1ncccc1C(F)(F)F` (relative stereo) [Example 33, trans-N-(3-isopropyl-1-methylpiperidin-4-yl)-2,2-dimethyl-3-((3-(trifluoromethyl)pyridin-2-yl)oxy)propanamide], 0.794 nM. Regarding `Cc1cccnc1OCC(C)(C)C(=O)N[C@@H]1CN(C)C[C@H]1c1ccc(Cl)cc1` (relative stereo) [Example 55, trans-N-(4-(4-chlorophenyl)-1-methylpyrrolidin-3-yl)-2,2-dimethyl-3-((3-methylpyridin-2-yl)oxy)propanamide], the EC50 is 31.6 nM. As for `CN1C[C@@H](NC(=O)C(C)(C)COc2ncccc2C(F)(F)F)[C@H](c2ccc(Cl)cc2)C1` (relative stereo) [Example 56, trans-N-(4-(4-chlorophenyl)-1-methylpyrrolidin-3-yl)-2,2-dimethyl-3-((3-(trifluoromethyl)pyridin-2-yl)oxy)propanamide], the EC50 is 25.1 nM.

In the case of `Cc1cccnc1OCC(C)(C)C(=O)N[C@@H]1CN(C)C[C@H]1c1ccc(C(F)(F)F)nc1` (relative stereo) [Example 57, trans-2,2-dimethyl-N-(1-methyl-4-(6-(trifluoromethyl)pyridin-3-yl)pyrrolidin-3-yl)-3-((3-methylpyridin-2-yl)oxy)propanamide], the EC50 was 63.1 nM. On the same count and under the same terms, for `CN1C[C@@H](NC(=O)C(C)(C)COc2ncccc2C(F)(F)F)[C@H](c2ccc(C(F)(F)F)nc2)C1` (relative stereo) [Example 59, trans-2,2-dimethyl-N-(1-methyl-4-(6-(trifluoromethyl)pyridin-3-yl)pyrrolidin-3-yl)-3-((3-(trifluoromethyl)pyridin-2-yl)oxy)propanamide] the value was 31.6 nM. In the case of `Cc1ccc([C@@H]2CN(C)C[C@H]2NC(=O)C(C)(C)COc2ncccc2C)cn1` (relative stereo) [Example 60, trans-2,2-dimethyl-N-(1-methyl-4-(6-methylpyridin-3-yl)pyrrolidin-3-yl)-3-((3-methylpyridin-2-yl)oxy)propanamide], the EC50 was 79.4 nM.

On to `Cc1ccc([C@@H]2CN(C)C[C@H]2NC(=O)C(C)(C)COc2ncccc2C2CC2)cn1` (relative stereo) [Example 61, trans-3-((3-cyclopropylpyridin-2-yl)oxy)-2,2-dimethyl-N-(1-methyl-4-(6-methylpyridin-3-yl)pyrrolidin-3-yl)propanamide], for which the EC50 was 63.1 nM. For `Cc1cnc(OCC(C)(C)C(=O)N[C@@H]2CN(C)C[C@H]2c2ccc(Cl)cc2)c(C)c1` (relative stereo) [Example 93, trans-N-(4-(4-chlorophenyl)-1-methylpyrrolidin-3-yl)-3-((3,5-dimethylpyridin-2-yl)oxy)-2,2-dimethylpropanamide], the EC50 is 200 nM. As for `CN1C[C@@H](NC(=O)C(C)(C)COc2ncccc2C2CC2)[C@H](c2ccc(Cl)cc2)C1` (relative stereo) [Example 94, trans-N-(4-(4-chlorophenyl)-1-methylpyrrolidin-3-yl)-3-((3-cyclopropylpyridin-2-yl)oxy)-2,2-dimethylpropanamide], the EC50 was 20 nM. Still for that read-out and setting: for `CCO[C@@H]1CN(C)C[C@H]1NC(=O)C(C)(C)COc1ccccc1CC` (relative stereo) [Example 95, trans-N-(4-ethoxy-1-methylpyrrolidin-3-yl)-3-(2-ethylphenoxy)-2,2-dimethylpropanamide] the value was 79.4 nM; for `CCc1ccccc1OCC(C)(C)C(=O)N[C@@H]1CN(C)C[C@H]1OC` (relative stereo) [Example 96, trans-3-(2-ethylphenoxy)-N-(4-methoxy-1-methylpyrrolidin-3-yl)-2,2-dimethylpropanamide], 200 nM. For `Cc1ccc([C@@H]2CN(CC#N)C[C@H]2NC(=O)C(C)(C)COc2ncccc2C(F)(F)F)cn1` (relative stereo) [Example 103, trans-N-(1-(cyanomethyl)-4-(6-methylpyridin-3-yl)pyrrolidin-3-yl)-2,2-dimethyl-3-((3-(trifluoromethyl)pyridin-2-yl)oxy)propanamide], the EC50 is 631 nM. `CN1CC[C@@H](NC(=O)C(C)(C)COc2ncccc2OC(F)(F)F)[C@H](c2cnn(C(F)F)c2)C1` (relative stereo) [Example 126, trans-N-(3-(1-(difluoromethyl)-1H-pyrazol-4-yl)-1-methylpiperidin-4-yl)-2,2-dimethyl-3-((3-(trifluoromethoxy)pyridin-2-yl)oxy)propanamide]: the EC50 is 1.58 nM. Consider `CC(C)(COc1ncccc1C(F)(F)F)C(=O)N[C@@H]1CNC[C@H]1F` (relative stereo) [Example 130, trans-N-(4-fluoropyrrolidin-3-yl)-2,2-dimethyl-3-((3-(trifluoromethyl)pyridin-2-yl)oxy)propanamide], for which the EC50 was 251 nM. As for `C[C@H]1C[C@H](NC(=O)C(C)(C)COc2ncccc2C(F)(F)F)CN1C` (relative stereo) [Example 133, trans-N-(1,5-dimethylpyrrolidin-3-yl)-2,2-dimethyl-3-((3-(trifluoromethyl)pyridin-2-yl)oxy)propanamide], the EC50 was 631 nM. Regarding `C[C@@H]1C[C@H](NC(=O)C(C)(C)COc2ncccc2C(F)(F)F)CN1C` (relative stereo) [Example 134, cis-N-(1,5-dimethylpyrrolidin-3-yl)-2,2-dimethyl-3-((3-(trifluoromethyl)pyridin-2-yl)oxy)propanamide], the EC50 is 2000 nM. As to `C[C@H]1C[C@H](NC(=O)C(C)(C)COc2ncccc2OC(F)(F)F)CCN1C` (relative stereo) [Example 135, trans-N-(1,2-dimethylpiperidin-4-yl)-2,2-dimethyl-3-((3-(trifluoromethoxy)pyridin-2-yl)oxy)propanamide], the EC50 is 25.1 nM. For `CC[C@H]1[C@H](NC(=O)C(C)(C)COc2ncccc2C(F)(F)F)CCN1C` (relative stereo) [Example 149, trans-N-(2-ethyl-1-methylpyrrolidin-3-yl)-2,2-dimethyl-3-((3-(trifluoromethyl)pyridin-2-yl)oxy)propanamide], the EC50 is 126 nM. The same measure, in the same setting: for `CN1CC[C@@H](c2cnn(C)c2)[C@H](NC(=O)C(C)(C)COc2ncccc2C(F)(F)F)C1` (relative stereo) [Example 169, 2,2-dimethyl-N-(trans-1-methyl-4-(1-methyl-1H-pyrazol-4-yl)piperidin-3-yl)-3-((3-(trifluoromethyl)pyridin-2-yl)oxy)propanamide] the value was 251 nM; for `CC(C)(COc1ncccc1C(F)(F)F)C(=O)O[C@@H]1CCNC[C@H]1c1ccccc1` (relative stereo) [Example 171, trans-3-phenylpiperidin-4-yl 2,2-dimethyl-3-((3-(trifluoromethyl)pyridin-2-yl)oxy)propanoate], 316 nM. Same read-out and setting: for `Cc1cnc(OCC(C)(C)C(=O)N[C@@H]2CN(C)C[C@H]2C)c(C)c1` (relative stereo) [Example 183, 3-((3,5-dimethylpyridin-2-yl)oxy)-N-(trans-1,4-dimethylpyrrolidin-3-yl)-2,2-dimethylpropanamide] the value was 251 nM.
